Patent US20240009143A1, “EXTRACTION OF SHIKONIN FROM ARNEBIA DECUMBENS ROOTS AND USE OF SHIKONIN DERIVATIVES FOR TREATING ULCERS” (KUWAIT UNIVERSITY, priority 2022, published 2024)

Tested on: Heliobacter pylori
Assay: In vitro testing on H. pylori
Assay type: cell-based
Settings: dose of 0.06 mg
Description: The biological activity of the 4 shikonin derivatives were tested against 2 microorganisms Heliobacter pylori (H. pylori or HP) and Candida albicans (C. albicans).

| SMILES | inhibition associated with H. pylori [%] |
| --- | --- |
| CC(=O)O[C@H](CC=C(C)C)C1=CC(=O)c2c(O)ccc(O)c2C1=O [compound D, acetylshikonin] | 41.6 |
| CC(C)=CC[C@@H](O)C1=CC(=O)c2c(O)ccc(O)c2C1=O [compound E, shikonin] | 41.6 |
